Literature values, collected in US20250195401A1, “COSMETIC COMPOSITION OF LIPOSOMES CONTAINING AN EXTRACT OF HAEMATOCOCCUS PLUVIALIS, TETRAHEXYLDECYL ASCORBATE AND ECTOIN” (IMAGE INTERNATIONAL MANUFACTURING, LLC, priority 2023, published 2025).

Details: 6 h at 190° C.

stability at high temperatures: very stable
Compound: CC1=N[C@H](C(=O)O)CCN1 [Ectoine, (4S)-2-methyl-1,4,5,6-tetrahydropyrimidine-4-carboxylic acid]
